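Results reflect a 48-hour exposure of cells in 96-well plates to compound at five concentrations. Abbreviation: GI50, concentration required for 50% inhibition of growth.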 Calls of active or inactive are those of the source. Cut-off read from the data, not from the text of the source: active = GI50 up to about 1.1 µM and inactive = higher.
Key:
Experiment in all cases: NCI tumour cell line growth inhibition, 48 h
A498 = test system: A498
ACHN = test system: ACHN
CAKI-1 = test system: CAKI-1
DU-145 = test system: DU-145
HOP-92 = test system: HOP-92
Hs-578T = test system: Hs-578T
M14 = test system: M14
MCF7 = test system: MCF7
NCI-H23 = test system: NCI-H23
NCI-H522 = test system: NCI-H522
OVCAR-5 = test system: OVCAR-5
PC-3 = test system: PC-3
SK-MEL-28 = test system: SK-MEL-28
SK-MEL-2 = test system: SK-MEL-2
SNB-19 = test system: SNB-19
SNB-75 = test system: SNB-75
SR = test system: SR
T47D = test system: T47D
UACC-62 = test system: UACC-62
HL-60 = test system: HL-60

| Structure (SMILES) | GI50 (A498) | GI50 (ACHN) | GI50 (CAKI-1) | GI50 (DU-145) | GI50 (HOP-92) | GI50 (Hs-578T) | GI50 (M14) | GI50 (MCF7) | GI50 (NCI-H23) | GI50 (NCI-H522) | GI50 (OVCAR-5) | GI50 (PC-3) | GI50 (SK-MEL-28) | GI50 (SK-MEL-2) | GI50 (SNB-19) | GI50 (SNB-75) | GI50 (SR) | GI50 (T47D) | GI50 (UACC-62) | GI50 (HL-60) |
| --- | --- | --- | --- | --- | --- | --- | --- | --- | --- | --- | --- | --- | --- | --- | --- | --- | --- | --- | --- | --- |
| COC(=O)c1cc(=O)n(-c2ccc3nn(C)nc3c2)cc1C(=O)OC | > 100 µM (inactive) | > 100 µM (inactive) | > 100 µM (inactive) | > 100 µM (inactive) | > 100 µM (inactive) | > 100 µM (inactive) | > 100 µM (inactive) | > 100 µM (inactive) | > 100 µM (inactive) | > 100 µM (inactive) | > 100 µM (inactive) | > 100 µM (inactive) | > 100 µM (inactive) | > 100 µM (inactive) | > 100 µM (inactive) | > 100 µM (inactive) | > 100 µM (inactive) | > 100 µM (inactive) | > 100 µM (inactive) |  |
| COC(=O)c1ccc2[nH]c3c(c2c1)CC(=O)Nc1ccccc1-3 | > 100 µM (inactive) | > 100 µM (inactive) | 56 µM (inactive) | 45.7 µM (inactive) |  | > 100 µM (inactive) | 35.8 µM (inactive) | > 100 µM (inactive) |  | > 100 µM (inactive) | 60.3 µM (inactive) | > 100 µM (inactive) | > 100 µM (inactive) | > 100 µM (inactive) | > 100 µM (inactive) | 2.3 µM (inactive) | 7.28 µM (inactive) | > 100 µM (inactive) | > 100 µM (inactive) |  |
| c1ccc(-c2cccc(-c3ccccn3)n2)nc1 [TERPYRIDINE] | 1.09 µM (active) | 0.385 µM (active) | 0.527 µM (active) | 0.324 µM (active) |  | 7.06 µM (inactive) | 0.164 µM (active) | 0.394 µM (active) | 0.753 µM (active) | 0.489 µM (active) | 0.755 µM (active) | 0.409 µM (active) | 0.706 µM (active) | 1.17 µM (inactive) | 0.935 µM (active) | 1.57 µM (inactive) | 0.317 µM (active) | 1.1 µM (active) | 0.736 µM (active) | 0.173 µM (active) |
| CC(C)=CCN1c2ccccc2NC(=O)CC1C (centres undefined) | 83.8 µM (inactive) | 71.1 µM (inactive) | > 100 µM (inactive) | > 100 µM (inactive) | 38.7 µM (inactive) | > 100 µM (inactive) | > 100 µM (inactive) | > 100 µM (inactive) | > 100 µM (inactive) | > 100 µM (inactive) | > 100 µM (inactive) | > 100 µM (inactive) | > 100 µM (inactive) | > 100 µM (inactive) | > 100 µM (inactive) |  | 56.5 µM (inactive) | 84.7 µM (inactive) |  | 61.2 µM (inactive) |
| O=C1c2ccccc2C(=O)N1C1(C(=O)NC2(C(=O)O)CCCC2)CCCC1 | > 100 µM (inactive) | > 100 µM (inactive) | > 100 µM (inactive) | > 100 µM (inactive) |  | > 100 µM (inactive) | > 100 µM (inactive) | > 100 µM (inactive) | > 100 µM (inactive) | > 100 µM (inactive) | > 100 µM (inactive) | > 100 µM (inactive) | > 100 µM (inactive) | > 100 µM (inactive) | > 100 µM (inactive) | > 100 µM (inactive) | > 100 µM (inactive) | > 100 µM (inactive) | > 100 µM (inactive) |  |
| CC(C)c1cccc(C(=O)NCCN(C)C)c1[N+](=O)[O-] | 65.9 µM (inactive) | > 100 µM (inactive) | > 100 µM (inactive) | > 100 µM (inactive) |  | > 100 µM (inactive) | > 100 µM (inactive) | > 100 µM (inactive) | > 100 µM (inactive) | > 100 µM (inactive) | > 100 µM (inactive) | > 100 µM (inactive) | > 100 µM (inactive) | > 100 µM (inactive) | > 100 µM (inactive) | 35 µM (inactive) | > 100 µM (inactive) | > 100 µM (inactive) | > 100 µM (inactive) | > 100 µM (inactive) |
| C1CNCCN2CCCNCCN(C1)CC2 | > 100 µM (inactive) | > 100 µM (inactive) | > 100 µM (inactive) | > 100 µM (inactive) | > 100 µM (inactive) | > 100 µM (inactive) | > 100 µM (inactive) | > 100 µM (inactive) | > 100 µM (inactive) | > 100 µM (inactive) | > 100 µM (inactive) | > 100 µM (inactive) | > 100 µM (inactive) | > 100 µM (inactive) | > 100 µM (inactive) | > 100 µM (inactive) | > 100 µM (inactive) | > 100 µM (inactive) | > 100 µM (inactive) |  |
